The record followed here is publication PMC12383145, “Fluorescent Peptides Internalize HeLa Cells and Kill Multidrug-Resistant Clinical Bacterial Isolates” (Antibiotics, 2025).

SMILES strings stand for the structures. Values after ≈ are worked out from the molar mass of the structure shown. Values joined by “and” are separate entries in the source; they are usually repeats but may differ in a detail not shown here. Equal values may be shown once. Positions of bridges follow the written chain, without caps; N, C: chain ends. Non-standard residues stand in square brackets, D forms with d. Residues, ends and D or L forms follow the SMILES beside them. Chains are numbered I, II in the order given. *: point of attachment. 5FAM = O=C1OC2(c3ccc(O)cc3Oc3cc(O)ccc32)c2ccc(C(=O)*)cc21; hPhe = N[C@@H](CCc1ccccc1)C(=O)O; Ahx = NCCCCCC(=O)O

Common to all, as to format: cell-based
Series [1] deals with E. faecalis clinical isolate 213. To be noted: clinical isolate 213, 24 h. As to the method: (§1) E. coli isolates 1004 (susceptible), 129797 (resistant), and 301755 (MDR) were selected for evaluation. Isolate 1004 was sensitive to all antibiotics tested. […] These findings identify it as a multidrug-resistant (MDR) strain and an extended-spectrum beta-lactamase (ESBL)-producing bacterium. For S. aureus, isolates 109095, 117719, and 124653 were evaluated. All three were resistant to penicillin, indicating beta-lactamase production mediated by the blaZ gene. Studies have shown that up to 90% of S. aureus isolates worldwide are penicillin-resistant, which implies that this antibiotic is ineffective in infections caused by this pathogen. […] Isolate 124653 was resistant to penicillin, tetracycline, and erythromycin, with the latter belonging to the group of macrolides, antibiotics that inhibit protein synthesis through interaction with the 50S […] subunit. For E. faecalis three isolates were selected: strains 213 (sensitive to all the antibiotics tested), strain 82 (resistant to streptomycin), and strain 179 (resistant to gentamicin). These clinical isolates were selected to assess the antimicrobial activity of the peptide RWQWRWQWR and its analogues conjugated to fluorescent molecules in strains against strains with susceptibility profiles.
(§2) The analysis of synthesized peptides in ATCC reference strains and susceptible, resistant, and multidrug-resistant (MDR) clinical isolates was performed. The clinical isolates were obtained from the National Cancer Institute collection and were previously identified and antibiogrammed using the VITEK system. Additionally, the strains were characterized by MALDI-TOF. The strains were re-primed onto trypticase soy agar and subsequently preserved in Brain–Heart Infusion (BHI) broth containing 20% glycerol. For the MIC and MBC assays, the strains were reactivated and cultured in BHI until they reached their exponential growth phase.
(§3) The minimum inhibitory concentration (MIC) of the peptides was determined by the broth microdilution technique, according to the Clinical and Laboratory Standards Institute (CLSI) guidelines, as previously described. Briefly, bacterial strains were incubated in BHI broth at 37 °C until they reached the exponential growth phase, and inocula were adjusted to 5 × 10^6 CFU/mL using calibration curves. Serial dilutions of the peptides to be evaluated in 96-well plates were made in 90 µL of Mueller Hinton broth at concentrations ranging from 200 to 6.25 µg/mL, and 10 µL of the inoculum adjusted to 5 × 10^6 CFU/mL was added. Finally, the plates were incubated at 37 °C for 24 h, and the absorbance at 620 nm was read. As a negative control, CMH, distilled water, and 10 µL of inoculum were used; for the positive control, vancomycin was used for Gram-positive strains and ciprofloxacin for Gram-negative strains at the MICs dictated by the CLSI; as a technical control, CMH with peptone water was used, and for the growth control, CMH was used with 10 µL of inoculum.
(§4) To determine the minimum bactericidal concentration (MBC), the 96-well plates where the MIC was determined were used as a starting point. From these, an aliquot of the controls and those wells where no apparent bacterial growth was observed were spotted onto trypticase soy agar plates. The plates were incubated at 37 °C for 24 h, and the reading was taken, identifying the lowest concentration of the peptide where there was no bacterial growth as the MBC.

Series [2] deals with E. coli clinical isolate 129797 (resistant). To be noted: clinical isolate 129797 (resistant, 24 h). As to the method:
as §1, §2, §3, §4

Series [3] has as its system E. faecalis clinical isolate 82. To be noted: clinical isolate 82, 24 h. As to the method: as §1, §2, §3, §4
Series [4] deals with S. aureus clinical isolate 109095. To be noted: clinical isolate 109095, 24 h. As for the experimental part:
as §1, §2, §3, §4

For series [5], the system named is E. coli clinical isolate 1004 (susceptible). To be noted: clinical isolate 1004 (susceptible, 24 h). As for the experimental part:
as §1, §2, §3, §4

In series [6] the test system is E. coli clinical isolate 301755 (MDR). To be noted: clinical isolate 301755 (MDR, 24 h). As to the method: as §1, §2, §3, §4
Series [7] has as its system E. faecalis clinical isolate 179. To be noted: clinical isolate 179, 24 h. As for the experimental part: as §1, §2, §3, §4
The test system of series [8] is S. aureus clinical isolate 124653. To be noted: clinical isolate 124653, 24 h. As to the method:
as §1, §2, §3, §4

A short description of series [9]: Hemolysis assay. To be noted: Percentage of hemolysis. As for the experimental part: (§5) Whole blood was collected into EDTA tubes and centrifuged at 2500 rpm for 10 min. The plasma and buffy coat were removed, and the erythrocytes were washed three times with 0.9% saline to yield a 4% cell suspension. In 96-well plates, 100 µL of peptide dilutions (6.25–200 µg/mL) were prepared in triplicate, and 100 µL of the erythrocyte suspension was added (final hematocrit 2%). Plates were incubated at 37 °C for 2 h, and then centrifuged again at 2500 rpm for 10 min. A 100 µL aliquot of the supernatant was transferred to a fresh plate, and absorbance was measured at 450 nm. Saline and 1× Triton X-100 served as the negative and positive controls, respectively. Hemolysis (%) was calculated as follows: %hemolysis=treatment absorbance−saline absorbance/1×triton absorbance−saline absorbance

Series [10] concerns erythrocytes. Nature of the series: Hemolysis assay. To be noted: 2 h. As to the method:
as §5

Series [11] has as its system P. aeruginosa ATCC 27853. To be noted: ATCC 27853, 24 h. As to the method:
as §3, §4

The test system of series [12] is S. aureus ATCC 25923. To be noted: ATCC 25923, 24 h. As to the method:
as §3, §4

The subject of series [13] is E. faecalis ATCC 29212. To be noted: ATCC 29212, 24 h. As to the method:
as §3, §4

The test system of series [14] is K. pneumoniae ATCC 700603. To be noted: ATCC 700603, 24 h. As for the experimental part:
as §3, §4

The subject of series [15] is E. coli ATCC 25922. To be noted: ATCC 25922, 24 h. As to the method:
as §3, §4

For series [16], the system named is S. aureus clinical isolate 11719. To be noted: clinical isolate 11719, 24 h.
A short description of series [17]: MTT cytotoxicity assay in HeLa cells. To be noted: human. As for the experimental part: MTT assays were conducted in HeLa cells to evaluate the effect of fluorescent probe incorporation on the in vitro cytotoxic activity of the parent non-conjugated peptides. The cytotoxic effect of peptides 1, Abz-1 RhB-1, 2, and RhB-2 in HeLa cells was peptide concentration-dependent, with the highest anticancer activity observed at 200 µg/mL. Incorporation of 2-Abz and RhB at the N-terminal end reduced cytotoxic activity, while the binding of 2-Abz at the C-terminal end or FAM at the N-terminal end drastically diminished anticancer activity (Table 4).
(Tetrazolium assays rely on reduction of a dye to a coloured formazan, in cell work by metabolically active cells.)

As usually defined, the IC50 is the midpoint of a concentration-inhibition curve. With `N=C(N)NCCC[C@H](NC(=O)[C@H](Cc1c[nH]c2ccccc12)NC(=O)[C@H](CCC(N)=O)NC(=O)[C@H](Cc1c[nH]c2ccccc12)NC(=O)[C@H](CCCNC(=N)N)NC(=O)[C@H](Cc1c[nH]c2ccccc12)NC(=O)[C@H](CCC(N)=O)NC(=O)[C@H](Cc1c[nH]c2ccccc12)NC(=O)[C@H](CCCNC(=N)N)NC(=O)c1ccc2c(c1)C(=O)OC21c2ccc(O)cc2Oc2cc(O)ccc21)C(N)=O` [FAM-1, FAM-RWQWRWQWR] (5FAM-RWQWRWQWR-NH2), the Minimal bactericidal concentration (MBC) in series [1], in series [2], in series [3], in series [4], in series [5] and in series [6] was over 108 µM in each case. Besides, the Minimal bactericidal concentration (MBC) in [7], in series [8], in series [11], in series [12], in [13] and in series [14] was over 108 µM each time. Also, the Minimal bactericidal concentration (MBC) in series [15] and in [16] was over 108 µM in each case. Besides, the Minimal inhibitory concentration (MIC) in series [1] was 108 µM (≈ 199 µg/mL); in series [2] it was over 108 µM; in series [3], 54 µM (≈ 99.6 µg/mL); in series [4], over 108 µM; in series [5] it was 108 µM (≈ 199 µg/mL); in series [6] it was 108 µM (≈ 199 µg/mL). Further, the Minimal inhibitory concentration (MIC) in [7] was over 108 µM; in series [8], over 108 µM; in series [11], over 108 µM; in [12] it was 108 µM (≈ 199 µg/mL); in series [13], 54 µM (≈ 99.6 µg/mL); in series [14], over 108 µM. Moreover, the figures for the Minimal inhibitory concentration (MIC) in series [15] and in series [16] were 108 µM (≈ 199 µg/mL) and over 108 µM, respectively. The compound also had a hemolysis at 2 h in series [9] of 17%. Moreover, the Therapeutic index in series [10] was 0.25. In series [17], the IC50 was > 200 µg/mL and > 108 µM.
On to `CC(C)C[C@H](NC(=O)[C@H](CCCCN)NC(=O)[C@H](CCCCN)NC(=O)[C@H](CCc1ccccc1)NC(=O)[C@H](CCCNC(=N)N)NC(=O)[C@H](Cc1c[nH]c2ccccc12)NC(=O)[C@H](CCC(N)=O)NC(=O)[C@H](Cc1c[nH]c2ccccc12)NC(=O)[C@H](CCCNC(=N)N)NC(=O)[C@@H](N)CCCNC(=N)N)C(=O)NCC(=O)NCCCC[C@H](NC(=O)CNC(=O)[C@H](CC(C)C)NC(=O)[C@H](CCCCN)NC(=O)[C@H](CCCCN)NC(=O)[C@H](CCc1ccccc1)NC(=O)[C@H](CCCNC(=N)N)NC(=O)[C@H](Cc1c[nH]c2ccccc12)NC(=O)[C@H](CCC(N)=O)NC(=O)[C@H](Cc1c[nH]c2ccccc12)NC(=O)[C@H](CCCNC(=N)N)NC(=O)[C@@H](N)CCCNC(=N)N)C(=O)NCCCCCC(N)=O` [peptide 2, (RRWQWR-hF-KKLG)2K-Ahx] (I: H-RRWQWR[hPhe]KKLGK[Ahx]-NH2 / II: H-RRWQWR[hPhe]KKLG; amide I:12-II:C; N-terminus assumed), for which, in series [17], the IC50 was 109 µg/mL and 32 µM.
